Measurements from patent publication US8148391B2 (Cephalon, Inc., priority 2006, dated 2012).
pIC50: −log10 of the molar value. Where two headings read alike, the source gives them in different places. Blank lines part the entries; values can stand above or below the compound they belong to.

Tests used:
[1] = biological target: T1, baculovirus-expressed ALK (Homo sapiens, UniProt Q9UM73); assay: ALK Kinase Assay (ELISA-type, time-resolved fluorescence); format: biochemical
T1 construct: host or cells: baculovirus expression system
T1 sequence (Q9UM73 19-1620): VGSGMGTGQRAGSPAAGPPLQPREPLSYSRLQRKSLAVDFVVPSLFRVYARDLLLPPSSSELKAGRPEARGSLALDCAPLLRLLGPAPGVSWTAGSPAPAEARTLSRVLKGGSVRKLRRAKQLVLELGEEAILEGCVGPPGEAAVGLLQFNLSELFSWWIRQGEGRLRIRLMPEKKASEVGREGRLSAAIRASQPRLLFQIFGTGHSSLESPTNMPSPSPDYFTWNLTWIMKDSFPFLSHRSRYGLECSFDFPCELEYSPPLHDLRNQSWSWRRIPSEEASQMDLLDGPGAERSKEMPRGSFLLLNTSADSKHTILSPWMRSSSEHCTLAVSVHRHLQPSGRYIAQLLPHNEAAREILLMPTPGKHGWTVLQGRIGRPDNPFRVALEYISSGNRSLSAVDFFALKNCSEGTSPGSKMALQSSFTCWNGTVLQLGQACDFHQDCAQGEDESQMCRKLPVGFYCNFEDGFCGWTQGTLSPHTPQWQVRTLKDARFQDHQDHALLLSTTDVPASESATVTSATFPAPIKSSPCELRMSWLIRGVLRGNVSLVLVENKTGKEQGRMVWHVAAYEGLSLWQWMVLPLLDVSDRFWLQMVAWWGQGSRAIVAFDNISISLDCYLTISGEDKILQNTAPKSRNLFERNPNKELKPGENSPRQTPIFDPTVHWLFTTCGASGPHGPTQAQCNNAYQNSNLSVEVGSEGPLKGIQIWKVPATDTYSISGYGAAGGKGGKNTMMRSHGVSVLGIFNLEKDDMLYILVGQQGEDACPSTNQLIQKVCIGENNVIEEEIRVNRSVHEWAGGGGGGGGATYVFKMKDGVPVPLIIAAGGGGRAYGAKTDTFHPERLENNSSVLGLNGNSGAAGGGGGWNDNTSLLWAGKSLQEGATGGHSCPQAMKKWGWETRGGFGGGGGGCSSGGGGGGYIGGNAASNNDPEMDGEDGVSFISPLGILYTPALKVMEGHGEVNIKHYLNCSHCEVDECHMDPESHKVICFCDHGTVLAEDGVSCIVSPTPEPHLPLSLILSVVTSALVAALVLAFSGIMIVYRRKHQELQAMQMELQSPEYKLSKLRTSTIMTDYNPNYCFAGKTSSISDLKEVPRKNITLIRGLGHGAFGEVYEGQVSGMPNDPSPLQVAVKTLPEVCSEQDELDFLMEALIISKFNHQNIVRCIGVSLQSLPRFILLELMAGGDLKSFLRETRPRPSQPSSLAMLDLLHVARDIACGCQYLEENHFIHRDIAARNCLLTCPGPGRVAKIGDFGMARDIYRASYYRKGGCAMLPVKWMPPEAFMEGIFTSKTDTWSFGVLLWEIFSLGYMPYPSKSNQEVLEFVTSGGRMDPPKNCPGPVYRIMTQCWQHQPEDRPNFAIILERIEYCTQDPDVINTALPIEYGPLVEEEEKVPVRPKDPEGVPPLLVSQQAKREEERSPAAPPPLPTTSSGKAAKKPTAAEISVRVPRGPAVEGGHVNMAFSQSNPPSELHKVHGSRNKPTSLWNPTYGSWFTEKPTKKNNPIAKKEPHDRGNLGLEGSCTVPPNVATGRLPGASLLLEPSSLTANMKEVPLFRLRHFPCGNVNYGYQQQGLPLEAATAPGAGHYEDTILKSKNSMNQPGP
Summary of the method: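 Plates coated with phospholipase C-γ substrate (10 μg/mL in TBS); reaction started with 30 ng/ml ALK and run 15 min at 37° C. Phosphorylated substrate detected with Eu-N1-labeled PT66 antibody. IC50 from sigmoidal variable-slope fit of percent inhibition vs log concentration.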

[2] = biological target: T2, c-Met (cytoplasmic domain) (Homo sapiens, UniProt P08581); assay: c-Met Kinase Assay (same methods as for ALK, with modifications); format: biochemical
T2 construct: 10 ng/mL c-Met (cytoplasmic domain, Invitrogen Corporation #PV3143); purchased Invitrogen Corporation PV3143
T2 sequence (P08581 956-1390 limits assumed): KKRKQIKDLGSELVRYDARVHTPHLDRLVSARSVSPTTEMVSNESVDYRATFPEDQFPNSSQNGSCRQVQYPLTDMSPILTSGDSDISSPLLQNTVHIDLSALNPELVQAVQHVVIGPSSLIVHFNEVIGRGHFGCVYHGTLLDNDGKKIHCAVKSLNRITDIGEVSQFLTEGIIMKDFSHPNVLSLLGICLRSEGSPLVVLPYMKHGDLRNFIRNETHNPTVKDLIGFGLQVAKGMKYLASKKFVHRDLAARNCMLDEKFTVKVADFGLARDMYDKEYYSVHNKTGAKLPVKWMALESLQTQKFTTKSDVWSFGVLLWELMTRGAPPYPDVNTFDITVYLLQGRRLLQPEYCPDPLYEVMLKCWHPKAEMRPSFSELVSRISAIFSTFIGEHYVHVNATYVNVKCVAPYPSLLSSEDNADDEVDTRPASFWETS
Summary of the method: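 Europium-labeled PT66 antibody (Eu-N1) detects substrate phosphorylation on wells coated with phospholipase C-γ at 10 μg/mL. The kinase, the cytoplasmic domain of c-Met at 10 ng/mL, starts the reaction, which proceeds 15 minutes at 37° C.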

[3] = ALK kinase inhibition, 1 μM ATP, read-out: ALK Activity
[4] = c-Met kinase inhibition, 1 μM ATP, read-out: cMet Activity
[5] = ALK kinase inhibition, 1 μM ATP (Km level), read-out: ALK Activity
[6] = c-Met kinase inhibition, 1 μM ATP (Km level), read-out: cMet Activity
[7] = 1 μM ATP (Km level), read-out: ALK Activity (ALK Kinase Inhibition, IC50)
[8] = 1 μM ATP (Km level), read-out: cMet Activity (c-Met Kinase Inhibition, IC50)
[9] = 1 μM ATP (Km level), 30 ng/ml ALK, 37° C., 15 minutes, read-out: ALK Activity (ALK kinase inhibition, IC50 class)
[10] = 1 μM ATP (Km level), 10 ng/mL c-Met, read-out: cMet Activity (c-Met kinase inhibition, IC50 class)

Compound: CNC(=O)c1cccc(F)c1Nc1nc(Nc2ccc3c(c2)N(C(C)=O)CCCC3)ncc1Cl [Example 1489, 2-[2-(1-Acetyl-2,3,4,5-tetrahydro-1H-benzo[b]azepin-8-ylamino)-5-chloro-pyrimidin-4-ylamino]-3-fluoro-N-methyl-benzamide]
pIC50 [1, 3]: 6.00 to 7.00
pIC50 [2, 4]: > 7.00

Compound: CCN1CCN(CC)c2cc(Nc3ncc(Cl)c(Nc4ccccc4C(=O)NC)n3)ccc2C1 [Example 419, 2-[5-Chloro-2-(1,4-diethyl-2,3,4,5-tetrahydro-1H-benzo[e][1,4]diazepin-8-ylamino)-pyrimidin-4-ylamino]-N-methylbenzamide]
pIC50 [1, 5]: > 7.00
pIC50 [2, 6]: > 7.00

Compound: CC1(C)CCC(=O)Nc2ccc(Nc3ncc(Cl)c(Nc4ccccc4-c4cc(=O)[nH]c(=O)[nH]4)n3)cc21 [Example 988, 6-{2-[5-Chloro-2-(5,5-dimethyl-2-oxo-2,3,4,5-tetrahydro-1H-benzo[b]azepin-7-ylamino)-pyrimidin-4-ylamino]-phenyl}-1H-pyrimidine-2,4-dione]
pIC50 [1, 7]: 5.00 to 6.00
pIC50 [2, 8]: < 5.00

Compound: CNC(=O)c1ccccc1Nc1nc(Nc2ccc3c(c2)OCCN(C)C3=O)ncc1Cl [Example 514, 2-[5-chloro-2-(4-methyl-5-oxo-2,3,4,5-tetrahydro-benzo[f][1,4]oxazepin-8-ylamino)-pyrimidin-4-ylamino]-N-methyl-benzamide]
pIC50 [1, 7]: > 7.00
pIC50 [2, 8]: > 7.00

Compound: COc1cc2c(cc1Nc1ncc(Cl)c(Nc3ccccc3OC)n1)CCOC(=O)N2C [Example 1508, 2-[5-Chloro-4-(2-methoxy-phenylamino)-pyrimidin-2-ylamino]-3-methoxy-5-methyl-8,9-dihydro-5H-7-oxa-5-aza-benzocyclohepten-6-one]
pIC50 [1, 3]: > 7.00
pIC50 [2, 4]: < 5.00

Compound: CNC(=O)c1ccccc1Nc1nc(Nc2ccc3c(c2)COCCN3C)ncc1Cl [Example 15, 2-[5-Chloro-2-(1-methyl-1,2,3,5-tetrahydro-benzo[e][1,4]oxazepin-7-ylamino)-pyrimidin-4-ylamino]-N-methyl-benzamide]
pIC50 [1, 5]: > 7.00
pIC50 [2, 6]: > 7.00

Compound: 3-{2-[2-(1-Acetyl-4-oxo-1,2,3,4,5,6-hexahydro-1,5-benzodiazepin-8-ylamino)-5-chloro-pyrimidin-4-ylamino]-phenoxy}-propionitrile [Example 1237]
pIC50 [1, 9]: > 7.00
pIC50 [2, 10]: 6.00 to 7.00

Second part, the compound after the results:

pIC50 [1, 5]: 6.00 to 7.00
pIC50 [2, 6]: 5.00 to 6.00
Compound: COCCN1CCc2ccc(Nc3ncc(Cl)c(NCCNS(C)(=O)=O)n3)cc2CC1 [Example 299, N-(2-{5-Chloro-2-[3-(2-methoxy-ethyl)-2,3,4,5-tetrahydro-1H-benzo[d]azepin-7-ylamino]-pyrimidin-4-ylamino}-ethyl)-methanesulfonamide]

pIC50 [1, 9]: > 7.00
pIC50 [2, 10]: < 5.00
Compound: COc1cc2c(cc1Nc1ncc(Cl)c(N[C@@H]3CCCC[C@H]3NS(C)(=O)=O)n1)CCC(NCCO)CC2 (single isomer, unassigned) [Example 1095]

pIC50 [1, 3]: > 7.00
pIC50 [2, 4]: < 5.00
Compound: CCN([C@@H]1CCCC[C@H]1Nc1nc(Nc2cc3c(cc2OC)CCN(CCOC)CC3)ncc1Cl)S(C)(=O)=O [Example 1677, N-((1R,2R)-2-{5-Chloro-2-[8-methoxy-3-(2-methoxy-ethyl)-2,3,4,5-tetrahydro-1H-benzo[d]azepin-7-ylamino]-pyrimidin-4-ylamino}-cyclohexyl)-N-ethyl-methanesulfonamide]

pIC50 [1, 9]: > 7.00
pIC50 [2, 10]: < 5.00
Compound: COc1cc2c(cc1Nc1ncc(Cl)c(N[C@@H]3CCCC[C@H]3NS(C)(=O)=O)n1)CCN(C(CF)CF)CC2 [Example 1392, ((1R,2R)-2-{5-Chloro-2-[3-(2-fluoro-1-fluoromethyl-ethyl)-8-methoxy-2,3,4,5-tetrahydro-1H-benzo[d]azepin-7-ylamino]-pyrimidin-4-ylamino}-cyclohexyl)-methanesulfonamide]
